The NIST ThermoML archive (doi:10.1021/je7000182)

Assay: xn = mol fraction of the nth substance listed
Settings: for mass density: 101 kPa, Liquid

CC(C)=O [acetone] + Cc1ccccc1
Settings | mass density [kg/m3] | surface tension liquid-gas [mN/m]
288.15 K, x1 = 0.1 | 866.62 | 28.54
288.15 K, x1 = 0.2 | 861.43 | 27.86
288.15 K, x1 = 0.3 | 855.6 | 27.32
288.15 K, x1 = 0.4 | 849.5 | 26.98
288.15 K, x1 = 0.5 | 842.16 | 26.58
288.15 K, x1 = 0.6 | 834.94 | 25.91
288.15 K, x1 = 0.6999 | 826.67 | 25.22
288.15 K, x1 = 0.8 | 817.43 | 24.68
288.15 K, x1 = 0.9 | 807.56 | 24.24
288.15 K, x1 = 1 | 795.65 | 24.34
293.15 K, x1 = 0.1 | 861.94 | –
293.15 K, x1 = 0.2 | 856.62 | –
293.15 K, x1 = 0.3 | 850.69 | –
293.15 K, x1 = 0.4 | 844.49 | –
293.15 K, x1 = 0.5 | 837.08 | –
293.15 K, x1 = 0.6 | 829.76 | –
293.15 K, x1 = 0.6999 | 821.37 | –
293.15 K, x1 = 0.8 | 812.03 | –
293.15 K, x1 = 0.9 | 802.05 | –
293.15 K, x1 = 1 | 790.04 | –
298.15 K, x1 = 0.1 | 857.19 | 27.42
298.15 K, x1 = 0.2 | 851.77 | 26.78
298.15 K, x1 = 0.3 | 845.76 | 26.27
298.15 K, x1 = 0.4 | 839.43 | 25.87
298.15 K, x1 = 0.5 | 831.96 | 25.26
298.15 K, x1 = 0.6 | 824.52 | 24.69
298.15 K, x1 = 0.6999 | 816.05 | 24.14
298.15 K, x1 = 0.8 | 806.58 | 23.46
298.15 K, x1 = 0.9 | 796.47 | 23.01
298.15 K, x1 = 1 | 784.33 | 23.02
303.15 K, x1 = 0.1 | 852.43 | –
303.15 K, x1 = 0.2 | 846.92 | –
303.15 K, x1 = 0.3 | 840.8 | –
303.15 K, x1 = 0.4 | 834.37 | –
303.15 K, x1 = 0.5 | 826.83 | –
303.15 K, x1 = 0.6 | 819.3 | –
303.15 K, x1 = 0.6999 | 810.71 | –
303.15 K, x1 = 0.8 | 801.09 | –
303.15 K, x1 = 0.9 | 790.88 | –
303.15 K, x1 = 1 | 778.57 | –
308.15 K, x1 = 0.1 | 847.66 | 26.25
308.15 K, x1 = 0.2 | 842.06 | 25.78
308.15 K, x1 = 0.3 | 835.83 | 25.21
308.15 K, x1 = 0.4 | 829.3 | 24.88
308.15 K, x1 = 0.5 | 821.64 | 24.2
308.15 K, x1 = 0.6 | 814 | 23.59
308.15 K, x1 = 0.6999 | 805.29 | 22.92
308.15 K, x1 = 0.8 | 795.56 | 22.51
308.15 K, x1 = 0.9 | 785.21 | 21.83
308.15 K, x1 = 1 | 772.76 | 21.72
313.15 K, x1 = 0.1 | 842.86 | –
313.15 K, x1 = 0.2 | 837.17 | –
313.15 K, x1 = 0.3 | 830.83 | –
313.15 K, x1 = 0.4 | 824.2 | –
313.15 K, x1 = 0.5 | 816.43 | –
313.15 K, x1 = 0.6 | 808.68 | –
313.15 K, x1 = 0.6999 | 799.88 | –
313.15 K, x1 = 0.8 | 790.01 | –
313.15 K, x1 = 0.9 | 779.49 | –
313.15 K, x1 = 1 | 766.91 | –
318.15 K, x1 = 0.1 | 838.04 | 24.97
318.15 K, x1 = 0.2 | 832.23 | 24.75
318.15 K, x1 = 0.3 | 825.82 | 24.09
318.15 K, x1 = 0.4 | 819.06 | 23.74
318.15 K, x1 = 0.5 | 811.19 | 22.82
318.15 K, x1 = 0.6 | 803.32 | 22.67
318.15 K, x1 = 0.6999 | 794.39 | 21.7
318.15 K, x1 = 0.8 | 784.39 | 21.34
318.15 K, x1 = 0.9 | 773.74 | 20.48
318.15 K, x1 = 1 | 760.99 | 20.38
323.15 K, x1 = 0.1 | 833.22 | –
323.15 K, x1 = 0.2 | 827.29 | –
323.15 K, x1 = 0.3 | 820.75 | –
323.15 K, x1 = 0.4 | 813.89 | –
323.15 K, x1 = 0.5 | 805.91 | –
323.15 K, x1 = 0.6 | 797.91 | –
323.15 K, x1 = 0.6999 | 788.88 | –
323.15 K, x1 = 0.8 | 778.74 | –
323.15 K, x1 = 0.9 | 767.94 | –
323.15 K, x1 = 1 | 755.02 | –
328.15 K, x1 = 0.1 | 828.34 | 23.63
328.15 K, x1 = 0.2 | 822.32 | 23.48
328.15 K, x1 = 0.3 | 815.67 | 23.04
328.15 K, x1 = 0.4 | 808.7 | 22.7
328.15 K, x1 = 0.5 | 800.59 | 21.99
328.15 K, x1 = 0.6 | 792.48 | 21.06
328.15 K, x1 = 0.6999 | 783.31 | 20.65
328.15 K, x1 = 0.8 | 773.01 | 19.95
328.15 K, x1 = 0.9 | 762.08 | 19.32
328.15 K, x1 = 1 | 748.98 | 19.15

CC(C)=O [acetone] + O
surface tension liquid-gas [mN/m], Pendant drop shape
Settings | 288.15 K | 298.15 K | 308.15 K | 318.15 K | 328.15 K
x1 = 0.0099 | 62.59 | 61.04 | 59.26 | 58.11 | 57.74
x1 = 0.05 | 47.85 | 46.14 | 44.78 | 43.74 | 42.86
x1 = 0.0999 | 40.32 | 39.07 | 37.88 | 36.87 | 35.71
x1 = 0.15 | 35.72 | 34.41 | 33.13 | 32.02 | 30.76
x1 = 0.1999 | 33.71 | 32.21 | 30.74 | 29.4 | 28.31
x1 = 0.2999 | 30.6 | 29.35 | 28.08 | 26.98 | 25.68
x1 = 0.4 | 29.19 | 27.98 | 26.78 | 25.47 | 24.23
x1 = 0.4999 | 28.24 | 27.04 | 25.82 | 24.53 | 23.28
x1 = 0.5999 | 27.29 | 26.03 | 24.81 | 23.63 | 22.26
x1 = 0.6999 | 26.71 | 25.44 | 24.25 | 22.94 | 21.73
x1 = 0.7999 | 25.78 | 24.51 | 23.2 | 22.02 | 20.9
x1 = 0.8999 | 25.06 | 23.8 | 22.56 | 21.19 | 20.19
x1 = 1 | 24.34 | 23.02 | 21.72 | 20.38 | 19.15

mass density [kg/m3]
Settings | 288.15 K | 293.15 K | 298.15 K | 303.15 K | 308.15 K | 313.15 K | 318.15 K | 323.15 K | 328.15 K
x1 = 0.0099 | 994.9 | 993.87 | 992.55 | 991 | 989.16 | 987.26 | 985.07 | 982.76 | 980.29
x1 = 0.05 | 981.27 | 979.34 | 977.21 | 974.89 | 972.41 | 969.77 | 966.73 | 963.1 | 959.94
x1 = 0.1 | 965.81 | 962.9 | 959.83 | 956.64 | 953.33 | 949.91 | 946.37 | 942.68 | 938.87
x1 = 0.15 | 950.41 | 946.79 | 943.05 | 939.23 | 935.32 | 931.31 | 927.21 | 923 | 918.72
x1 = 0.2 | 935.61 | 931.54 | 927.37 | 923.1 | 918.78 | 914.37 | 909.89 | 905.19 | 900.64
x1 = 0.3 | 907.7 | 903.09 | 898.35 | 893.54 | 888.68 | 883.75 | 878.76 | 873.7 | 868.56
x1 = 0.4 | 884.77 | 879.81 | 874.8 | 869.68 | 864.53 | 859.33 | 854.06 | 848.74 | 843.31
x1 = 0.5 | 863.71 | 858.56 | 853.35 | 848.07 | 842.72 | 837.31 | 831.85 | 826.32 | 820.73
x1 = 0.6 | 845.83 | 840.53 | 835.15 | 829.71 | 824.22 | 818.66 | 813.05 | 807.35 | 801.6
x1 = 0.7 | 830.7 | 825.3 | 819.8 | 814.25 | 808.63 | 802.96 | 797.22 | 791.42 | 785.55
x1 = 0.8 | 818.04 | 812.56 | 806.97 | 801.32 | 795.62 | 789.84 | 784.05 | 778.16 | 772.2
x1 = 0.9 | 805.86 | 800.27 | 794.6 | 788.88 | 783.11 | 777.29 | 771.4 | 765.46 | 759.81
x1 = 1 | 795.65 | 790.04 | 784.33 | 778.57 | 772.76 | 766.91 | 760.99 | 755.02 | 748.98
